This experiment has as its target T1, renin (Homo sapiens, UniProt P00797).
T1 construct: This test measures the formation of angiotensin I in human plasma; from tissue; host or cells: human plasma
T1 sequence (P00797 67-406): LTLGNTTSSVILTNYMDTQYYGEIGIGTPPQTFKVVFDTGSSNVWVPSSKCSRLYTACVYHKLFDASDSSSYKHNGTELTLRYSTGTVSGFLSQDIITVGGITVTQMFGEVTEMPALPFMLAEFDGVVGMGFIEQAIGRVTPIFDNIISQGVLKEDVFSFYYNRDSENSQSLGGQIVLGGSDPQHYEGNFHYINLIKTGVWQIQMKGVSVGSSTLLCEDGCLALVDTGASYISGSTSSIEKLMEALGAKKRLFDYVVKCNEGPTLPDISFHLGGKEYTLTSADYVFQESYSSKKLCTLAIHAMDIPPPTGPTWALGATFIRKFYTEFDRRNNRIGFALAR
Nature of the experiment: in vitro test of Nussberger et al.: formation of angiotensin I in human plasma, determined by radioimmunoassay. Format: biochemical. To be noted: concentration of inhibitor which reduces the formation of angiotensin I in human plasma by 50%. The method, then: The effect of renin inhibitors is detected inter alia experimentally by means of in vitro tests where the reduction in the formation of angiotensin I is measured in various systems (human plasma, purified human renin together with synthetic or natural renin substrate). The following in vitro test of Nussberger et al. (1987) J. Cardiovascular Pharmacol., Vol. 9, pp. 39-44, is used inter alia. This test measures the formation of angiotensin I in human plasma. The amount of angiotensin I formed is determined in a subsequent radioimmunoassay. The effect of inhibitors on the formation of angiotensin I is tested in this system by adding various concentrations of these substances. The IC50 is defined as the concentration of the particular inhibitor which reduces the formation of angiotensin I by 50%. The compounds of the present invention show inhibitory effects in the in vitro systems at minimal concentrations of about 10^−6 to about 10^−10 mol/l.
Turning to `COCCCN1CCOc2ccc(CO[C@H]3CNCC[C@]3(OCCOC)c3ccc(COCCOC)cc3)cc21` [Example 1, 6-{(3S,4S)-4-(2-Methoxy-ethoxy)-4-[4-(2-methoxy-ethoxymethyl)-phenyl]-piperidine-3-yloxymethyl}-4-(3-methoxy-propyl)-3,4-dihydro-2H-benzo[1,4]oxazine], the half-inhibitory concentration (IC50) came to 26.5 nM.

`COCCCN1CCOc2ccc(CO[C@H]3CNCC[C@]3(OC[C@H](O)COC)c3ccc(COCCOC)cc3)cc21` [Example 2, (R)-1-Methoxy-3-{(3S,4S)-4-[4-(2-methoxy-ethoxymethyl)-phenyl]-3-[4-(3-methoxy-propyl)-3,4-dihydro-2H-benzo[1,4]oxazin-6-ylmethoxy]-piperidin-4-yloxy}-propan-2-ol] gave a half-maximal inhibitory concentration (IC50) of 10.4 nM.

On to `COCCCN1CCOc2ccc(CO[C@H]3CNCC[C@]3(OC[C@@H](O)COC)c3ccc(COCCOC)cc3)cc21` [Example 3, (S)-1-Methoxy-3-{(3S,4S)-4-[4-(2-methoxy-ethoxymethyl)-phenyl]-3-[4-(3-methoxy-propyl)-3,4-dihydro-2H-benzo[1,4]oxazin-6-ylmethoxy]-piperidin-4-yloxy}-propan-2-ol], for which half-maximal inhibition (IC50) required 9.5 nM.

In the case of `COCCCN1CCOc2ccc(CO[C@H]3CNCC[C@]3(OCC3CCCC3)c3ccc(COCCOC)cc3)cc21` [Example 5, 6-{(3S,4S)-4-Cyclopentylmethoxy-4-[4-(2-methoxy-ethoxymethyl)-phenyl]-piperidin-3-yloxymethyl}-4-(3-methoxy-propyl)-3,4-dihydro-2H-benzo[1,4]oxazine], the IC50 came out at 92.5 nM.

`COCCCO[C@]1(c2ccc(COC[C@@H](C)COC)cc2)CCNC[C@@H]1OCc1ccc2c(c1)N(CCCOC)CCO2` [Example 10, 6-[(3S,4S)-4-[4-((S)-3-Methoxy-2-methyl-propoxymethyl)-phenyl]-4-(3-methoxy-propoxy)-piperidin-3-yloxymethyl]-4-(3-methoxy-propyl)-3,4-dihydro-2H-benzo[1,4]oxazine]: 3 nM corresponded to half-maximal inhibition (IC50).

As for `COCCCN1CCOc2ccc(CO[C@H]3CNCC[C@]3(OCC#N)c3ccc(COC[C@@H](C)COC)cc3)cc21` [Example 12, {(3S,4S)-4-[4-((S)-3-Methoxy-2-methyl-propoxymethyl)-phenyl]-3-[4-(3-methoxy-propyl)-3,4-dihydro-2H-benzo[1,4]oxazin-6-ylmethoxy]-piperidin-4-yloxy}-acetonitrile], it took 7.5 nM to reach half-maximal inhibition (IC50).

In general, IC50 refers to the point on the concentration scale where inhibition reaches its midpoint. Lower therefore signals higher potency.

The values above are taken from US20100256146A1, “TRISUBSTITUTED PIPERIDINES” (Novartis AG, priority 2007, published 2010).
